# Tests used:
# [1] = target: T1, angiotensin I converting enzyme (Bos taurus, UniProt P12820); assay: Anti-angiotensin I converting enzyme activity (modified Hayakari method, hippuryl-L-histidyl-L-leucine substrate, absorbance at 382 nm); format: biochemical, bovine; conditions: material from the purification steps of Examples 2 and 3; read-out: angiotensin I converting enzyme inhibitory activity (IC50) (converted)
# T1 construct: obtained from a bovine lung and partially purified; from tissue; host or cells: bovine lung
# T1 sequence (P12820 29-1306): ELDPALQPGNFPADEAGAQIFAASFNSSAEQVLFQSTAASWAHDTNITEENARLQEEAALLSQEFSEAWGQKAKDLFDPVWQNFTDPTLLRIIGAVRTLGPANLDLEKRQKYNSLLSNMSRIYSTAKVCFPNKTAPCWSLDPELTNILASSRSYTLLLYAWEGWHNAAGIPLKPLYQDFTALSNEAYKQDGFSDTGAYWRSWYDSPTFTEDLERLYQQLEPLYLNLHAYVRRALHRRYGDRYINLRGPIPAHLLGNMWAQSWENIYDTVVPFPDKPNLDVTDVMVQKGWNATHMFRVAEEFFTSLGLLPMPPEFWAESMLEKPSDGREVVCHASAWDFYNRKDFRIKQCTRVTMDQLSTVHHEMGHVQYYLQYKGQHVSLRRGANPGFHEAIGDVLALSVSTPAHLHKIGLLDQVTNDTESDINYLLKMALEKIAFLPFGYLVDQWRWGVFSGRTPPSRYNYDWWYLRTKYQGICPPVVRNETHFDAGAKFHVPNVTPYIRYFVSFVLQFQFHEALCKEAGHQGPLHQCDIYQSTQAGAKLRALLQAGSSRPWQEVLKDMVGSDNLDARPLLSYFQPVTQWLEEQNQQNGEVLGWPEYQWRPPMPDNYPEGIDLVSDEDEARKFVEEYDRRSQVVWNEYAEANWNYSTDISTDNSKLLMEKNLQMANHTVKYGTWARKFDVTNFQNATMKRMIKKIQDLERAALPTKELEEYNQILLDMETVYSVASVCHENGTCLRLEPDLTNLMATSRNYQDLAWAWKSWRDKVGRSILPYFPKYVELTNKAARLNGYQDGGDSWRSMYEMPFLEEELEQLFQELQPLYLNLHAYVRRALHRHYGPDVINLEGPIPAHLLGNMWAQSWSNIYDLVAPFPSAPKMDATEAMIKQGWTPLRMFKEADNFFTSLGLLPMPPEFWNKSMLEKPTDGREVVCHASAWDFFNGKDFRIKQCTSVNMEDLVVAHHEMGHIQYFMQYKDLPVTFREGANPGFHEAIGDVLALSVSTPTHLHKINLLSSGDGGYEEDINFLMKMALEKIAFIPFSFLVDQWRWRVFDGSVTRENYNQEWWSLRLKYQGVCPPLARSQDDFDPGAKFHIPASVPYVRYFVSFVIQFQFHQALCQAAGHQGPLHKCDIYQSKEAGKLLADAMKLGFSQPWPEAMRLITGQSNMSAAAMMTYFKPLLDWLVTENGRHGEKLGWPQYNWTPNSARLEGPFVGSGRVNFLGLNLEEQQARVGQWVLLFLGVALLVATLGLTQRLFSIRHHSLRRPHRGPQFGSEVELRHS
# Procedure: Follow-up of foroxymithine during the cultivation step and the purification step was performed in accordance with the determination of anti-angiotensin I converting enzyme activity by the method to be described below.
# Anti-angiotensin I converting enzyme activity was determined by a modification of the angiotensin I converting enzyme determination technique described in M. Hayakari et al., Analytical Biochemistry Vol. 84, pages 361-369 (1978). Hippuryl-L-histidyl-L-leucine as a substrate was dissolved at a concentration of 5 mg/ml in Tris-hydrochloride buffer (0.5M, pH 8.0) containing 0.3M sodium chloride. 0.40 ml of a solution containing a test material was added to 0.05 ml of the resulting solution. The mixture was heated at 37'C for 3 minutes. Then, 0.05 ml of a solution containing angiotensin I converting enzyme that had been obtained from a bovine lung and partially purified was added, and the mixture was reacted for 30 minutes at 37.C. […] After the system was allowed to stand for 15 minutes at room temperature, its absorbance (termed absorbance (a)) at 382 nm was measure. […] The reaction system as the control was measured for absorbance, which was termed absorbance (b). The angiotensin I converting enzyme inhibition rate (%) was calculated from the equation (b-a)/b x 100. […]
# [2] = system: spontaneous hypertensive rats (SH rats); assay: Effect on blood pressure in spontaneous hypertensive rats after oral administration; format: in vivo
# Procedure: This Example illustrates the effect of foroxymithine on blood pressure in spontaneous hypertensive rats (SH rate).
# SH rats weighing 320 to 358 g were orally administered foroxymithine dihydrate as an aqueous solution at do- see of 12.5, 25 and 50 mg/kg. After the administration, blood pressure was measured at certain time intervals. Changes in blood pressure in the foroxymithine- administered group were compared with those in the control group orally administered distilled water only.
# mice = assay: Acute toxicity studies in mice; format: in vivo; conditions: 800 mg/kg i.v.
# Excerpt: Foroxymithine is therefore a low-toxicity substance.
# [3] = oral dose 12.5 mg/kg, 1 hour after administration
# [4] = oral dose 12.5 mg/kg, 3 hours after administration
# [5] = oral dose 12.5 mg/kg, 6 hours after administration
# [6] = oral dose 12.5 mg/kg, 24 hours after administration
# [7] = oral dose 50.0 mg/kg, 1 hour after administration
# [8] = oral dose 50.0 mg/kg, 3 hours after administration
# [9] = oral dose 50.0 mg/kg, 6 hours after administration
# [10] = oral dose 50.0 mg/kg, 24 hours after administration
structure (smiles),measurement,setting,value
"CC(=O)NC(CCCN(O)C=O)C(=O)NC(CO)C(=O)N(O)CCCC1NC(=O)C(CCCN(O)C=O)NC1=O (stereo not drawn) [Foroxymithine dihydrate, foroxymithine]",IC50,[1],12.2 µM
same,Mean blood pressure ± S.D.,[2]; [3],180 ± 0.7 mmHg
same,decrease in blood pressure,[2]; [3],14.3%
same,Mean blood pressure ± S.D.,[2]; [4],190 ± 28.2 mmHg
same,decrease in blood pressure,[2]; [4],9.5%
same,Mean blood pressure ± S.D.,[2]; [5],200 ± 14.1 mmHg
same,decrease in blood pressure,[2]; [5],4.8%
same,Mean blood pressure ± S.D.,[2]; [6],210 ± 14.1 mmHg
same,decrease in blood pressure,[2]; [6],0%
same,Mean blood pressure ± S.D.,"[2]; oral dose 12.5 mg/kg, before administration",210 ± 0.7 mmHg
same,Mean blood pressure ± S.D.,[2]; [7],160 ± 7.0 mmHg
same,decrease in blood pressure,[2]; [7],23.8%
same,Mean blood pressure ± S.D.,[2]; [8],153 ± 3.5 mmHg
same,decrease in blood pressure,[2]; [8],27.1%
same,Mean blood pressure ± S.D.,[2]; [9],193 ± 10.6 mmHg
same,decrease in blood pressure,[2]; [9],8.1%
same,Mean blood pressure ± S.D.,[2]; [10],213 ± 3.5 mmHg
same,decrease in blood pressure,[2]; [10],-1.4%
same,Mean blood pressure ± S.D.,"[2]; oral dose 50.0 mg/kg, before administration",210 ± 0.0 mmHg
same,effect on blood pressure,"[2]; spontaneous hypertensive rats (SH rats), oral, conclusion in words",lower blood pressure
same,deaths (acute toxicity),mice,no deaths

# — EP0162422A2, “The novel physiologically active substance foroxymithine, a process and microorganisms for its production and its use as medicament” (MICROBIAL CHEMISTRY RESEARCH FOUNDATION, priority 1984, dated 1985)
